Test results as given in patent publication US12510533B2, “Methods for treating multiple myeloma and the use of companion biomarkers for 4-(4-(4-(((2-(2,6-dioxopiperidin-3-yl)-1-oxoisoindolin-4-yl)oxy)methyl)benzyl)piperazin-1-yl)-3-fluorobenzonitrile” (Celgene Corporation, priority 2018, dated 2025).

Key:
NCI-H929 cells = test: PBMC-induced MM cell lysis, PBMCs and MM cells both pretreated, versus single MM culture (NCI-H929); assay type: cell-based, human; details: PBMCs and MM cells both preincubated 72 hours
Method: Ninety-six-well dishes were pre-coated with anti-CD3 antibody (OKT3, 3 μg/mL) and incubated at 4° C. overnight before the start of the experiment. Frozen PBMC donor cells were thawed at 37° C. for 2 minutes in RPMI medium with 10% FBS and cell counts and viability were measured on the Vi-CELL analyzer. Peripheral blood mononuclear cells were washed and diluted to 1×10^6 cells/mL and dispensed into the compound-treated plates in a total volume of 200 μL. Cells were incubated with Compound 2 for 2 hours before being transferred onto anti-CD3-coated plates and incubated for an additional 72 hours. At the same time, MM cell lines (NCI-H929, H929-1051, OPM2, OPM2-P10) were diluted to a final concentration of 0.1×10^6 cells/mL and labeled with CellTrace CFSE according to manufacturer's instructions. Multiple myeloma cell lines were then dispensed into compound-treated plates at a total volume of 200 μL and incubated for 72 hours. After 72 hours, the PBMCs and MM cells were counted and transferred into a U-bottom 96-well plate at a final T:E ratio of 1:5. After 24 hours coculture, specific target cell lysis by PBMC mediated apoptosis was measured using Annexin V-AF647 and 7-AAD according to manufacturer's instructions and samples were run on the Attune NxT Cytometer. […]

Ikaros = Ikaros (Homo sapiens, UniProt Q13422+Q96SW2); test: Ikaros degradation in CD8+ T cells; assay type: cell-based; design: The effects of Compound 2 on the degradation of Ikaros in CD4+ and CD8+ T cells; endogenous in cells; host or cells: CD4+ and CD8+ T cells of healthy donors; CD34+ bone marrow cells of healthy donors; CD3+ T cells of multiple myeloma patients; details: 24 hours (data not shown), read-out: Ikaros degradation IC50
Method: The effects of Compound 2 on the degradation of Ikaros in CD4+ and CD8+ T cells over a 72 hour time course were investigated. The ability of Compound 2 to induce effector cytokine release correlated with degradation of Ikaros in CD4+ T cells, a known transcriptional repressor of IL-2 (FIG. 22A-FIG. 22C). […] The ability of Compound 2 to degrade Ikaros was also observed at the 48 and 72 hour time point in both CD4+(FIG. 22B and FIG. 22C) and CD8+ (data not shown) T cell populations. […] Thus, Ikaros and Aiolos can serve as biomarkers of T-cell activation.

Aiolos, Ikaros, ZFP91 = test: Immunoblot of OPM2 cells after five-day incubation; assay type: cell-based, human; details: Compound 2 alone
Method: FIG. 4 illustrates that Compound 2 induced the degradation of Ikaros, Aiolos, ZFP91, c-Myc, and IRF4, which correlates with induction of the apoptotic protein cleaved-Caspase 3, and the cell cycle arrest protein p21. Immunoblot analysis of OPM2 parental cells incubated with Compound 2 at the indicated concentrations is shown. Actin is a loading control.
Ikaros and Aiolos degradation was followed by reduction in the levels of two additional and highly critical transcription factors, c-Myc and IRF4 (FIG. 4). The loss or reduction of these factors was associated with an increase of the cyclin-dependent kinase inhibitor p21 and induction of apoptosis, as measured by cleaved caspase-3 (FIG. 4).

[1] = system: Aiolos, Ikaros, and ZFP91; test: Phase 1 study, IHC of bone marrow aspirate clots; assay type: in vivo, human; details: before and during treatment (Cycle 1)
Text: FIG. 26A-FIG. 26E illustrate that the effect of Compound 2 on biomarker expression in CD138+ plasma cells from relapsed/refractory multiple myeloma patients. (FIG. 26A) Aiolos, (FIG. 26B) Ikaros, (FIG. 26C) ZFP91, (FIG. 26D) c-Myc, and (FIG. 26E) IRF4.
Bone marrow aspirate samples were taken before and during Compound 2 treatment (Cycle 1). Clots were made from each sample and processed into formalin fixed paraffin embedded blocks. Immunohistochemistry (IHC) assays were used to evaluate the biomarker expression. IHC scores were determined based on percent and intensity of positive staining.

Sequence of Ikaros (Q13422 whole entry): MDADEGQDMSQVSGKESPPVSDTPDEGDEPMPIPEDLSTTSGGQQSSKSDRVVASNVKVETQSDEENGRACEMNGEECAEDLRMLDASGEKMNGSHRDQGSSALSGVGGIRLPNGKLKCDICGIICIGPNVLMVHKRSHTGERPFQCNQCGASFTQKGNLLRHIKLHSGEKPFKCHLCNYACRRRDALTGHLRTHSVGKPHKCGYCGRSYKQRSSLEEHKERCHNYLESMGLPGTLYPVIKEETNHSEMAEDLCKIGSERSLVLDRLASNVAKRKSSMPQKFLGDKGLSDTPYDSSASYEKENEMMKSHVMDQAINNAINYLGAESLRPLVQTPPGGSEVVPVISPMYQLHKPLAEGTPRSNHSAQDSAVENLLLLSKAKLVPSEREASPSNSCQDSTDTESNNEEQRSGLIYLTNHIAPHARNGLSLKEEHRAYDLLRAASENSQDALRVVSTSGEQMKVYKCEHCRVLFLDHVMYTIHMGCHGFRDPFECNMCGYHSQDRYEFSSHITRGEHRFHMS
Sequence of Ikaros (Q16531 2-1140, further chain): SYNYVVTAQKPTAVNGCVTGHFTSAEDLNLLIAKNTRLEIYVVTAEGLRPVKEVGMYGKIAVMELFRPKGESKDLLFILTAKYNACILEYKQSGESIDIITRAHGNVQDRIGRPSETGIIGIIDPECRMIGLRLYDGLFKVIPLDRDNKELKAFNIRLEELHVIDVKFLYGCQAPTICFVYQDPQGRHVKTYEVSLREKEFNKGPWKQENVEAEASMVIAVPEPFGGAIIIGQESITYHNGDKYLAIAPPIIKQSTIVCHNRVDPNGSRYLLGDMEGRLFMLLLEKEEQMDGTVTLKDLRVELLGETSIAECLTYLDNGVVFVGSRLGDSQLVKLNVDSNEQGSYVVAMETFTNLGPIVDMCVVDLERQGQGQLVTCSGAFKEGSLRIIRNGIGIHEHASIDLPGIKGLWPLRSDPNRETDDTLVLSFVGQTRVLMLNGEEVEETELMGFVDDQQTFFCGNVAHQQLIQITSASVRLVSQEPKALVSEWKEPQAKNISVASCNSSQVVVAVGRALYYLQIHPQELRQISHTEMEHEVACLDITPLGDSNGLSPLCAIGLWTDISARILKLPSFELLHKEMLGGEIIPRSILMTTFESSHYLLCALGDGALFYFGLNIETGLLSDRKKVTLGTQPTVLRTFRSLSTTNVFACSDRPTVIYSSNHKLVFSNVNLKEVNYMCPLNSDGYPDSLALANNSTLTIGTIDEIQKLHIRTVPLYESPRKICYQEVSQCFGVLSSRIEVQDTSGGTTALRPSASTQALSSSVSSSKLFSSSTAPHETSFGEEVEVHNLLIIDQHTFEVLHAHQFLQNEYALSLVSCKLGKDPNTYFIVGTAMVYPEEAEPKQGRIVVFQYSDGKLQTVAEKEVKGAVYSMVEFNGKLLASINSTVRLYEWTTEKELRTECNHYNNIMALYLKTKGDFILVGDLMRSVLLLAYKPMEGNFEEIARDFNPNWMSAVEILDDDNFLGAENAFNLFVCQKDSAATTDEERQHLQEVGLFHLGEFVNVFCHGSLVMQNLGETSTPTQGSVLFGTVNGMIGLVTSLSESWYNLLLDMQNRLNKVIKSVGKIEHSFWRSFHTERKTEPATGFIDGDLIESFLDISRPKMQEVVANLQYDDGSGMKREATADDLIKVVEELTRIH
Sequence of Ikaros (Q96SW2 whole entry): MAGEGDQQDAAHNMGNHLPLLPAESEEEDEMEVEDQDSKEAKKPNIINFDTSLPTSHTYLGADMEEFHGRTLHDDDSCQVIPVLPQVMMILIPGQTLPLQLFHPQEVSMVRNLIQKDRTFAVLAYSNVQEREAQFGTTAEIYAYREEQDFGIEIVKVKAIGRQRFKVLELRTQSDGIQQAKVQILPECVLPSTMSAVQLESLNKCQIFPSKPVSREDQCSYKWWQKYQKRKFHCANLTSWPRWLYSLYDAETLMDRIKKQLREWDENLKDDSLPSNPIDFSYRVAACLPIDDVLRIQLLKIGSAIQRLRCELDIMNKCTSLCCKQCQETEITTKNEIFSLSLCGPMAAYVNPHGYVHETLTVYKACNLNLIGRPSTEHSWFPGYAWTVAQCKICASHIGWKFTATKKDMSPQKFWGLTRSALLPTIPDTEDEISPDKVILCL

N#Cc1ccc(N2CCN(Cc3ccc(COc4cccc5c4CN([C@H]4CCC(=O)NC4=O)C5=O)cc3)CC2)c(F)c1 [Compound 2, (S)-4-(4-(4-(((2-(2,6-dioxopiperidin-3-yl)-1-oxoisoindolin-4-yl)oxy)methyl)benzyl)piperazin-1-yl)-3-fluorobenzonitrile]
enhancement of killing, IC50 of single MM culture versus immune and tumor cell co-culture (NCI-H929 cells): ~7000 fold
DC50 (Ikaros): 0.5 nM
expression level of Aiolos and Ikaros, as well as ZFP91 (Aiolos, Ikaros, ZFP91): significantly decreased
biomarker expression in the tumor compartment (IHC) [1]: induced degradation of Aiolos, Ikaros, and ZFP91
